Measurements: patent publication US12410220B2, “Modulation of mammalian cell lineage by synthetic immodulins” (priority 2021, dated 2025)
Read-outs that look alike come from different tables or passages of the source. Marks after values point to notes of the source that are not given here. Ends that are not written are not given here. Peptide text beside a SMILES is read from it. * marks the point of attachment. RG108 = O=C1c2ccccc2C(=O)N1[C@@H](Cc1c[nH]c2ccccc12)C(=O)*

Key:
THP1-Dual monocytes [1] = test: THP1-Dual differentiation assay, immX3 peptide plus helper or inhibitor molecule; type: cell-based, human; conditions: immX3 peptide (330 nM) in all samples plus helper at the concentration given; immX3 with buffer = 100.0
Method: (§1) Mammalian cell differentiation assays using THP1-Dual monocytes reporter cell line (Invivogen Inc, San Diego, CA) seeded at 2×10e5 cells per well in 96-well plates and cultured at 37 degrees C. in RPMI-1640 growth medium plus 10% fetal bovine serum and 1% penicillin/streptomycin, then treated for 24 hours with either 100 ng/ml Phorbol 12-myristate 13-acetate (PMA protocol; Cayman Chemical Company, Ann Arbor, MI) or a mixture of IL-4 (100 ng/ml), GM-CSF (100 ng/ml), TNF-alpha (20 ng/ml) and ionomycin (200 ng/ml) (Cytokine protocol; Peprotech, Rocky Hill, NJ). Peptide (330 nM) was then added, and incubation continued for an additional 24 hours. Culture supernatants were then assayed for CCL22. Plates with adherent cells were washed with PBS and assayed for immunoreactivity of surface markers such as CD169, Clec9a, Clec12a or MHCII using fuorescent tag- or biotin-labeled anti-human antibodies purchased from Miltenyi Biotec (Auburn, CA) and a relevant secondary detection reagent, or by fluorescence counts.
The THP1-Dual cell differentiation assay was carried out as described above in Example 2, using immX3 peptide (330 nM) in all samples plus the indicated helper or inhibitor molecule. AU=arbitrary ELISA units. **p<0.01.

A375 cells = test: A375 cell viability (CellTiterGlo); type: cell-based; conditions: 72 hours
Method: Immune modulation functions of immodulin peptides have great potential untility in the field of cancer. A375 cell line was obtained from American Type Culture Collection (ATCC). They were grown in a T-75 flask in DMEM Medium containing 10% fetal bovine serum and penicillin-streptomycin at 37° C. in a humidified, 5% CO2 incubator. Cells (100 µl, 2,000 cells/well) were plated in a 96-well plate and incubated overnight at 37° C. in a humidified, 5% CO2 incubator. Next day, 10 µl/well of compounds were added (quadruplicate wells). After 72 hour incubation with the compound, cell viability was measured in a luminometer after the addition of 100 IL/well CellTiterGlo reagent (Promega Inc, Madison, WI) as recommended by the manufacturer. Anti-cancer activity of immodulin peptides on A375 cells: A 96-well plate was seeded with 2,000 A375 cells per well in DMEM medium containing 10% FBS and PenStrep. After 24 hrs at 37 deg C., compounds and peptides were added (each treatment done in quadruplicate). After a further 72 hours incubation, 100 μL/well of CTG assay reagent purchased from Promega Inc. (Madison, WI) was added. Plate was read after 10 minutes, as recommended by the manufacturer. Peptides were added at 2 uM. The results of this experiment are shown below, expressed as percent survival of A375 cells.

[2] = test system: Pancreatic protease Type I; test: Experiment 5A peptide stability to protease degradation; type: in vitro ADME; conditions: 20 minutes at 37 degrees C, read-out: percentage of surviving peptide after protease treatment
Method: Duplicate wells per dilution point in a 96-well NTA-coated plate (G-Biosciences, St. Louis, MO) charged with ferric chloride were adsorbed with 2 ug imm3N1V (V-nephrilin) or immX3N1 (sV-nephrilin) peptide per well for 30 min at room temperature, washed, then incubated with 100 ul/well of 8 or 2 μg/ml protease (Sigma Catalog #P4630, Pancreatic protease Type I) for 20 minutes at 37 degrees C. Plates were washed with PBS buffer and the remaining peptide bound was measured using an in-house calibrated anti-immodulin ELISA (rabbit polyclonal #2501). The percentages of surviving peptide after 8 or 2 μg/ml protease treatment were, respectively: V-nephrilin (imm3N1V): 57.6±2.3% and 79.0±0.7%; sV-nephrilin (immX3N1): 75.1±2.8% and 90.4±3.4% (p<0.001 at both concentrations). Thus, the immX tripeptide extension at the C-terminus using D-amino acids improved peptide stability to protease degradation.

[3] = test system: rat scald-endotoxemia model; test: Experiment 5B rat scald-endotoxemia model; type: in vivo, Sprague Dawley rats; conditions: for Change in body weight (Pct vs Day 1): Day 5; for Respiratory distress (Gp. “S” = 100): Day 8, 4 hours after LPS; for Wet/dry lung weight (corrected for body weight): Day 8, after LPS 2.5 mg/kg ip
Method: Experiment 5B. This study explores the effect of immX extensions on sV-nephrilin (SEQ ID NO:31) vs V-nephrilin, as well as in a longer peptide also containing the immX extension (Traumatin-3N1A: SEQ ID NO:35) on in vivo efficacy in a rat scald-endotoxemia model. Animals were treated with peptides using a widely used protocol previously described (see, for example, U.S. Pat. No. 10,369,191). Adult Sprague Dawley rats of both sexes (250-300 gm, Charles River Laboratories, Wilmington, MA, USA) were injected with peptide plus equimolar ferric iron once daily by subcutaneous bolus injection, days 1-7; Treatment group sizes were (n=6): group S=sham-treated; group B=burn+vehicle; group V=burn+1 mg/kg V-nephrilin (V); group sV=burn+1 mg/kg sV-nephrilin (immX3N1sV); group T=burn+1 mg/kg Traumatin-3N1A. The first dose was administered after completion of the scald procedure. Injection volume was 400 uL. Control animals received the same volume of vehicle. On Day 8, animals received a single intraperitoneal injection of 2.5 mg/kg lipopolysaccharide (LPS; Sigma Cat #L-2880) and animals were then monitored by oximeter (MouseOx, Starr Life Sciences) for 4 hours, when respiratory distress (breath distension*breaths/min) was assessed relative to baseline. This was followed by sacrifice and tissue collection as in the published protocol, except that bronchoalveolar lavage (BAL) was collected and cells were recovered from BAL by centrifugation. These cells were stained with fluorescently-labeled antibodies for flow cytometry in order to ascertain granulocyte counts, as shown below. Results of the peptide comparison are presented in the table below. *p<0.05 vs “B” control. #p<0.05 vs “V” group.

[4] = Experiment 4D binding to FITC-labelled hyaluronic acid; conditions: biotinylated peptide 1 ug/well; 1 ug FITC-labelled hyaluronic acid, 90 minutes
Method: (§2) Streptavidin-coated 96-well plates (G-Biosciences, St. Louis, MO) were pre-treated with biotinylated peptides [see Example 1 for key] at 1 ug/well, at room temperature for 60 minutes. The plate was washed with PBS buffer and then 1 ug FITC-labelled heparin or hyaluronic acid in 100 uL PBS buffer was added per well (all tests in quadruplicate). Incubation proceeded for 90 minutes at room temperature, followed by two PBS washes. The plate was read in a standard laboratory fluorometer (488/525 nm exitation/[…]) and the counts normalized for immX3 peptide binding=100. Values statistically above background are shown in bold font. **p<0.05 versus immX3AVD.

THP1-Dual monocytes [5] = test: THP1-Dual monocyte differentiation assay, PMA protocol; type: cell-based, human; conditions: peptide 330 nM, 24 hours; for CD169+ (AU): relative to immX3AVD = 100
Method: as §1

[6] = Experiment 4D binding to FITC-labelled heparin; conditions: biotinylated peptide 1 ug/well; 1 ug FITC-labelled heparin, 90 minutes
Method: as §2

[7] = Ferric iron-binding assay of biotinylated immodulin peptides; conditions: N-terminally biotinylated peptide, 400 ng per well, 60 min room temperature; immX3AVD = 100
Excerpt: N-terminally biotinylated versions of the peptides listed below were used in ferric iron-binding assays involving either an Alexa488-labeled streptavidin protocol (Binding Assay 1) or FITC-NTA assay (Binding Assay 2). Fluorescence was standardized to binding with immX3AVD control peptide (100) and the average of multiple experiments using both protocols is shown. P values are shown relative to the control immX3AVD peptide (**<0.05). D-amino acid residues are underlined in the sequences and the extension tripeptide of immX peptides is shown in bold font. Binding Assay 1 was done as follows: NTA coated 96-well plates (G-Biosciences, St. Louis, MO) were charged with ferric chloride and contacted with equimolar biotinylated peptide: streptavidin-A488 complex (400 ng peptide per well) for 60 min at room temperature, washed with phosphate-buffered saline (PBS) and read at 525 nm in a fluorescence counter. Binding Assay 2 was done as follows: Streptavidin coated 96-well plates (G-Biosciences, St. Louis, MO) were contacted with 400 ng peptide per well in PBS buffer for 60 minutes at room temperature, washed in PBS, then contacted with FITC-NTA (TRC, Toronto, Canada) complexed with equimolar ferric chloride (10× molar equivalent per well) for 60 min at room temperature, washed with PBS and read at 525 nm in a fluorescence counter.

THP1-Dual monocytes [8] = test: THP1-Dual monocyte differentiation assay, cytokine protocol; type: cell-based, human; conditions: peptide 330 nM, 24 hours, relative to immX3AVD = 100
Method: as §1

[9] = Day 1, burn + 1 mg/kg peptide plus equimolar ferric iron, subcutaneous once daily
[10] = burn + 1 mg/kg peptide plus equimolar ferric iron, subcutaneous once daily
[11] = burn + 1 mg/kg peptide days 1-7
[12] = Day 8, after LPS, burn + 1 mg/kg peptide days 1-7

| Molecule | remaining at 20 min ([2]; 2 μg/ml protease) [%] | remaining at 20 min ([2]; 8 μg/ml protease) [%] | Plasma albumin mg/ml (24 hr IR) [3, 9] | Change in body weight (Pct vs Day 1) [3, 10] | Respiratory distress (Gp. “S” = 100) [3, 11] | Wet/dry lung weight (corrected for body weight) [3, 11] | BAL His48+ granulocytes (FITC units) [3, 12] | CD169+ (AU) (THP1-Dual monocytes [5]) | Ferric iron binding, fluorescence standardized to immX3AVD control peptide (100), Avg ± SD [7] | further results |
| --- | --- | --- | --- | --- | --- | --- | --- | --- | --- | --- |
| Oc1c(C(Nc2nc3ccccc3s2)c2ccc(OC(F)F)cc2)ccc2cccnc12 (stereo not shown) [RIG-I agonist [b], reference compound] | – | – | – | – | – | – | – | – | – | CD169 (AU) (THP1-Dual monocytes [1]): 131.6 ± 4.6** AU; percent survival of A375 cells, RIG-I ag without peptide (A375 cells; RIG-I agonist 4 uM alone (No peptide)): 100.7% |
| CC(C)C[C@H](NC(=O)[C@H](Cc1ccc(O)cc1)NC(=O)[C@H](CC(=O)O)NC(=O)[C@H](CCC(=O)O)NC(=O)[C@@H](NC(=O)[C@@H](NC(=O)CNC(=O)[C@@H](N)CCCNC(=N)N)C(C)C)[C@@H](C)O)C(=O)N[C@@H](CCCNC(=N)N)C(=O)N[C@@H](CC(C)C)C(=O)N[C@@H](CCC(=O)O)C(=O)N[C@H](C(=O)N[C@@H](CC(C)C)C(=O)N[C@H](C(=O)N[C@@H](CCC(N)=O)C(=O)N[C@@H](CCCCN)C(=O)N[C@H](C(=O)N[C@H](C(=O)N[C@@H](CO)C(=O)N[C@@H](CCCCN)C(=O)NCC(=O)N[C@@H](Cc1ccccc1)C(=O)N[C@@H](Cc1ccc(O)cc1)C(=O)N[C@@H](CCCCN)C(=O)N[C@@H](CCCCN)C(=O)N[C@@H](CCCCN)C(=O)N[C@@H](CCC(N)=O)C(=O)N[C@@H](CS)C(=O)N[C@@H](CCCNC(=N)N)C(=O)N1CCC[C@H]1C(=O)N[C@@H](CO)C(=O)N[C@@H](CCCCN)C(=O)NCC(=O)N[C@@H](CCCNC(=N)N)C(=O)N[C@@H](CCCCN)C(=O)N[C@@H](CCCNC(=N)N)C(=O)NCC(=O)N[C@@H](Cc1ccccc1)C(=O)N[C@@H](CS)C(=O)N[C@@H](Cc1c[nH]c2ccccc12)C(=O)O)C(C)C)C(C)C)C(C)C)[C@@H](C)O [V-nephrilin] (H-RGVTEDYLRLETLVQKVVSKGFYKKKQCRPSKGRKRGFCW-OH; N-terminus and C-terminus assumed) | 79 ± 0.7 | 57.6 ± 2.3 | 7.9 ± 2.1 mg/mL | −9.8 ± 2.9 Pct | 349 ± 95 | 7.97 ± 0.76 | 28.9 ± 3.1* FITC units | – | – | Plasma IL-6 [3, 9]: 31.4 ± 19 pg/mL; BAL fluid IL1-beta [3, 12]: 112.8 ± 9.4 pg/mL; Plasma OHDG [3, 12]: 1.44 ± 1.0 ng/mL; Plasma creatinine [3, 12]: 0.91 ± 0.3 mg/dL |
| CC(C)[C@H](NC(=O)[C@H](C)NC(=O)[C@H](Cc1c[nH]c2ccccc12)NC(=O)[C@H](CS)NC(=O)[C@H](Cc1ccccc1)NC(=O)CNC(=O)[C@H](CCCNC(=N)N)NC(=O)[C@H](CCCCN)NC(=O)[C@H](CCCNC(=N)N)NC(=O)CNC(=O)[C@H](CCCCN)NC(=O)[C@H](CO)NC(=O)[C@@H]1CCCN1C(=O)[C@H](CCCNC(=N)N)NC(=O)[C@H](CS)NC(=O)[C@H](CCC(N)=O)NC(=O)[C@H](CCCCN)NC(=O)[C@H](CCCCN)NC(=O)[C@H](CCCCN)NC(=O)[C@H](Cc1ccc(O)cc1)NC(=O)[C@H](Cc1ccccc1)NC(=O)CNC(=O)[C@H](CCCCN)NC(=O)[C@@H](N)CCCCN)C(=O)N[C@@H](CC(=O)O)C(=O)O [immX3AVD] (H-KKGFYKKKQCRPSKGRKRGFCWAVD-OH; N-terminus and C-terminus assumed) | – | – | – | – | – | – | – | 100 | 100.0 | Hyaluronate binding, counts normalized for immX3 peptide binding=100 [4]: 100.0 ± 22.8; Heparin binding, counts normalized for immX3 peptide binding=100 [6]: 100.0 ± 4.7; Clec12A(AU) (THP1-Dual monocytes [8]): 100 AU |
| (rg108)-KKGFYKKKQCRPSKGRKRGFCW (RG108-KKGFYKKKQCRPSKGRKRGFCW; cysteine pairing not given here) [imm3rg8, imm3 N-terminally conjugated with RG108] | – | – | – | – | – | – | – | – | – | percent survival of A375 cells, +RIG-I ag (A375 cells; peptide 2 uM plus RIG-I agonist 4 uM): 105.8%; percent survival of A375 cells, Buffer (A375 cells; peptide 2 uM, no RIG-I agonist): 89.9** percent |
| KKGFYKKKQCRPSKGRKRGFCWRVD [immX3RVD] | – | – | – | – | – | – | – | 88.1 ± 4.2 | 97.5 ± 5.1 | CCL22 (THP1-Dual monocytes [5]; culture supernatant): 272.5 ± 35.7 pg/mL |
| RGVTEDYLRLETLVQKVVSKGFYKKKQCRPSKGRKRGFCWAVD (cysteines drawn unpaired) [sV-nephrilin] | 90.4 ± 3.4 | 75.1 ± 2.8 | 7.4 ± 1.6* mg/ml | −5.1 ± 3.6* Pct | 203 ± 30*# | 7.07 ± 0.48* | 26.8 ± 4.0* FITC units | – | – | Plasma IL-6 (pg/ml) [3, 9]: 17.5 ± 9.3* pg/ml; BAL fluid IL1-beta (pg/ml) [3, 12]: 67.1 ± 16*# pg/ml; Plasma OHDG (ng/ml) [3, 12]: 1.31 ± 0.6* ng/ml; Plasma creatinine (mg/dL) [3, 12]: 0.73 ± 0.2* mg/dL |
